Source: patent publication US20150105252A1, “SUBSTITUTED PYRAZOLES AS HERBICIDES” (E I DU PONT DE NEMOURS AND COMPANY, priority 2013, published 2015)

Key:
[1] = tested on: foxtail, giant; experiment: Test A postemergence; format: in vivo, Setaria faberii
Summary of the method: (§1)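 Visual injury ratings, 0 = no effect to 100 = complete control, taken about 10 days after treatment against untreated controls. Test chemicals, in a non-phytotoxic surfactant-containing solvent, were sprayed onto soil preemergence or onto one- to two-leaf plants (2–10 cm) postemergence, in loam–sand soil under greenhouse conditions.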

[2] = tested on: corn; experiment: Test A preemergence; format: in vivo, Zea mays
Summary of the method: as §1

[3] = tested on: wheat; experiment: Test A preemergence; format: in vivo, Triticum aestivum
Summary of the method: as §1

[4] = tested on: corn; experiment: Test A postemergence; format: in vivo, Zea mays
Summary of the method: as §1

[5] = tested on: barnyardgrass; experiment: Test A preemergence; format: in vivo, Echinochloa crus-galli
Summary of the method: as §1

[6] = tested on: crabgrass, large; experiment: Test A postemergence; format: in vivo, Digitaria sanguinalis
Summary of the method: as §1

[7] = tested on: barnyardgrass; experiment: Test A postemergence; format: in vivo, Echinochloa crus-galli; conditions: Postemergence
Summary of the method: as §1

[8] = tested on: morningglory; experiment: Test A postemergence; format: in vivo, Ipomoea spp.
Summary of the method: as §1

[9] = tested on: velvetleaf; experiment: Test A preemergence; format: in vivo, Abutilon theophrasti
Summary of the method: as §1

[10] = tested on: foxtail, giant; experiment: Test A preemergence; format: in vivo, Setaria faberii
Summary of the method: as §1

[11] = tested on: morningglory; experiment: Test A preemergence; format: in vivo, Ipomoea spp.
Summary of the method: as §1

[12] = tested on: wheat; experiment: Test A postemergence; format: in vivo, Triticum aestivum
Summary of the method: as §1

[13] = tested on: pigweed; experiment: Test A postemergence; format: in vivo, Amaranthus retroflexus
Summary of the method: as §1

[14] = tested on: velvetleaf; experiment: Test A postemergence; format: in vivo, Abutilon theophrasti
Summary of the method: as §1

[15] = tested on: pigweed; experiment: Test A preemergence; format: in vivo, Amaranthus retroflexus
Summary of the method: as §1

[16] = tested on: crabgrass, large; experiment: Test A preemergence; format: in vivo, Digitaria sanguinalis
Summary of the method: as §1

[17] = tested on: ducksalad; experiment: Test B flood; format: in vivo, Heteranthera limosa; conditions: 250 g ai/ha, visual rating on 0 to 100 scale (0 no effect, 100 complete control), 13 to 15 days
Experimental: (§2) Seeds selected from rice (Oryza sativa), sedge, umbrella (small-flower umbrella sedge Cyperus difformis), ducksalad (Heteranthera limosa), and barnyardgrass (Echinochloa crus-galli) were grown to the 2-leaf stage for testing. At time of treatment, test pots were flooded to 3 cm above the soil surface, treated by application of test compounds directly to the paddy water, and then maintained at that water depth for the duration of the test.
(§3) Treated plants and controls were maintained in a greenhouse for 13 to 15 days, after which time all species were compared to controls and visually evaluated. Plant response ratings, summarized in Table B, are based on a scale of 0 to 100 where 0 is no effect and 100 is complete control. A dash (-) response means no test result.

[18] = tested on: rice; experiment: Test B flood; format: in vivo, Oryza sativa; conditions: 250 g ai/ha, visual rating on 0 to 100 scale (0 no effect, 100 complete control), 13 to 15 days
Experimental: as §2, §3

[19] = tested on: barnyardgrass; experiment: Test B flood; format: in vivo, Echinochloa crus-galli; conditions: 250 g ai/ha, visual rating on 0 to 100 scale (0 no effect, 100 complete control), 13 to 15 days
Experimental: as §2, §3

[20] = tested on: sedge, umbrella; experiment: Test B flood; format: in vivo, Cyperus difformis; conditions: 250 g ai/ha, visual rating on 0 to 100 scale (0 no effect, 100 complete control), 13 to 15 days
Experimental: as §2, §3

[21] = Postemergence, 1000 g ai/ha, visual rating after approx. 10 days, 0 to 100 scale (0 no effect, 100 complete control)
[22] = Preemergence, 1000 g ai/ha, 0 to 100 scale, 0 no effect, 100 complete control
[23] = preemergence, 500 g ai/ha, visual injury after approx. 10 days, 0 to 100 scale (0 no effect, 100 complete control)
[24] = Postemergence, 500 g ai/ha, visual rating after approx. 10 days, 0 to 100 scale (0 no effect, 100 complete control)
[25] = postemergence, 125 g ai/ha, about 10 days, visual rating on 0 to 100 scale (0 no effect, 100 complete control)
[26] = Preemergence, 500 g ai/ha, 0 to 100 scale, 0 no effect, 100 complete control
[27] = preemergence, 125 g ai/ha, visual injury, 0 to 100 scale, approx. 10 days
[28] = 125 g ai/ha, 0 to 100 scale, 0 no effect, 100 complete control
[29] = 500 g ai/ha, visual rating after approx. 10 days, 0 to 100 scale (0 no effect, 100 complete control)

SMILES | Wheat plant response rating [3, 23] | Foxtail, Giant plant response rating [1, 24] | Foxtail, Giant plant response rating [1, 25] | Corn plant response rating [2, 27] | Wheat plant response rating [3, 27] | Corn plant response rating [4, 24] | Corn plant response rating [4, 25] | Barnyardgrass plant response rating [5, 27] | Crabgrass, Large plant response rating [6, 24] | Crabgrass, Large plant response rating [6, 25] | Barnyardgrass plant response rating [7, 28] | Barnyardgrass plant response rating [7, 29] | Plant response rating, Ducksalad [17] | Morningglory plant response rating [8, 24] | Morningglory plant response rating [8, 25] | Velvetleaf plant response rating [9, 27] | Foxtail, Giant plant response rating [10, 27] | Morningglory plant response rating [11, 27] | Wheat plant response rating [12, 24] | Wheat plant response rating [12, 25] | also measured
CCc1cc(C(=O)N(C)CC)nn1Cc1cccc(OC(F)(F)F)c1 [Compound 68] | 0 |  |  |  |  |  |  |  |  |  |  |  |  |  |  |  |  |  |  |  | Foxtail, Giant plant response rating [1, 21]: 20; Corn plant response rating [2, 22]: 0; Wheat plant response rating [3, 22]: 0; Corn plant response rating [4, 21]: 30; Barnyardgrass plant response rating [5, 22]: 0; Crabgrass, Large plant response rating [6, 21]: 30; Barnyardgrass plant response rating ([7]; 1000 g ai/ha, visual rating after approx. 10 days, 0 to 100 scale (0 no effect, 100 complete control)): 30; Morningglory plant response rating [8, 21]: 100; Velvetleaf plant response rating [9, 22]: 0; Foxtail, Giant plant response rating [10, 22]: 60; Morningglory plant response rating [11, 22]: 0; Wheat plant response rating [12, 21]: 20; Pigweed plant response rating [13, 21]: 60; Velvetleaf plant response rating [14, 21]: 40; Pigweed plant response rating [15, 22]: 70; Crabgrass, Large plant response rating [16, 22]: 40
CCCNC(=O)c1cc(C)n(Oc2ccnc(C(F)(F)F)c2)n1 [Compound 80] | 10 | 30 | 10 | 0 | 0 | 30 | 10 | 10 | 70 | 10 | 10 | 40 | 0 | 70 | 30 | 0 | 40 | 20 | 10 | 0 | Corn plant response rating [2, 26]: 0; Barnyardgrass plant response rating [5, 26]: 80; Velvetleaf plant response rating [9, 26]: 50; Foxtail, Giant plant response rating [10, 26]: 90; Morningglory plant response rating [11, 26]: 60; Pigweed plant response rating [13, 24]: 60; Pigweed plant response rating [13, 25]: 40; Velvetleaf plant response rating [14, 24]: 50; Velvetleaf plant response rating [14, 25]: 10; Plant response rating, Rice [18]: 0; Pigweed plant response rating [15, 26]: 100; Pigweed plant response rating [15, 27]: 60; Crabgrass, Large plant response rating [16, 26]: 100; Crabgrass, Large plant response rating [16, 27]: 50; Plant response rating, Barnyardgrass [19]: 0; Plant response rating, Sedge, Umbrella [20]: 0
CCc1cc(C(=O)NC2CC2)nn1Oc1ccnc(C(F)(F)F)c1 [Compound 83, N-cyclopropyl-5-ethyl-1-[[(2-trifluoromethyl)-4-pyridinyl]oxy]-1H-pyrazole-3-carboxamide] | 60 | 60 | 20 | 10 | 0 | 70 | 10 | 10 | 60 | 30 | 10 | 40 | 60 | 70 | 20 | 0 | 70 | 10 | 40 | 0 | Corn plant response rating [2, 26]: 60; Barnyardgrass plant response rating [5, 26]: 90; Velvetleaf plant response rating [9, 26]: 10; Foxtail, Giant plant response rating [10, 26]: 100; Morningglory plant response rating [11, 26]: 50; Pigweed plant response rating [13, 24]: 20; Pigweed plant response rating [13, 25]: 10; Velvetleaf plant response rating [14, 24]: 30; Velvetleaf plant response rating [14, 25]: 30; Plant response rating, Rice [18]: 10; Pigweed plant response rating [15, 26]: 100; Pigweed plant response rating [15, 27]: 90; Crabgrass, Large plant response rating [16, 26]: 100; Crabgrass, Large plant response rating [16, 27]: 100; Plant response rating, Barnyardgrass [19]: 0; Plant response rating, Sedge, Umbrella [20]: 70
CCc1cc(C(=O)NCC(F)(F)F)nn1Oc1ccnc(C(F)(F)F)c1 [Compound 84] | 50 | 50 | 10 | 10 | 0 | 40 | 10 | 10 | 50 | 20 | 10 | 30 | 20 | 70 | 20 | 0 | 40 | 0 | 40 | 0 | Corn plant response rating [2, 26]: 40; Barnyardgrass plant response rating [5, 26]: 70; Velvetleaf plant response rating [9, 26]: 50; Foxtail, Giant plant response rating [10, 26]: 80; Morningglory plant response rating [11, 26]: 30; Pigweed plant response rating [13, 24]: 20; Pigweed plant response rating [13, 25]: 10; Velvetleaf plant response rating [14, 24]: 30; Velvetleaf plant response rating [14, 25]: 20; Plant response rating, Rice [18]: 0; Pigweed plant response rating [15, 26]: 100; Pigweed plant response rating [15, 27]: 50; Crabgrass, Large plant response rating [16, 26]: 100; Crabgrass, Large plant response rating [16, 27]: 90; Plant response rating, Barnyardgrass [19]: 0; Plant response rating, Sedge, Umbrella [20]: 60
CCCCNC(=O)c1cc(CC)n(Oc2ccnc(C(F)(F)F)c2)n1 [Compound 86] | 0 | 40 | 10 | 0 | 0 | 30 | 10 | 0 | 50 | 10 | 0 | 20 | 0 | 60 | 10 | 0 | 0 | 0 | 10 | 0 | Corn plant response rating [2, 23]: 20; Barnyardgrass plant response rating [5, 23]: 50; Velvetleaf plant response rating [9, 23]: 0; Foxtail, Giant plant response rating [10, 23]: 80; Morningglory plant response rating [11, 23]: 20; Pigweed plant response rating [13, 24]: 0; Pigweed plant response rating [13, 25]: 0; Velvetleaf plant response rating [14, 24]: 40; Velvetleaf plant response rating [14, 25]: 30; Plant response rating, Rice [18]: 0; Pigweed plant response rating [15, 27]: 0; Pigweed plant response rating [15, 23]: 0; Crabgrass, Large plant response rating [16, 27]: 50; Crabgrass, Large plant response rating [16, 23]: 80; Plant response rating, Barnyardgrass [19]: 0; Plant response rating, Sedge, Umbrella [20]: 40
